Where a name gives a salt, the structure may show the parent alone. Read-outs that look alike come from different tables or passages of the source.
Tests used:
in vivo [1] = conditions: male, Sprague-Dawley, rat, po, 5 mg/kg, single oral 5 mg/kg, multiple sampling
Source text: (§1) Male SPF Sprague-Dawley rats (200-300 g, Charles River, Germany) were used throughout the study. Animals were allowed to acclimatize for one week prior to each part of the study. Tap water and food were available ad libitum.
For multiple blood sampling via the tail vein the animals were placed in a rodent cylindrical restrainer developed by the Scientific Instrument Division (Johnson & Johnson, Pharmaceutical Research and Development, division of Janssen Pharmaceutica). The rat's tail was warmed using an infra red lamp to facilitate the sampling. Venous blood was collected by a 27 G needle into Multivette 600KE tubes containing EDTA (Sarstedt, Germany).
(§2) The plasma concentration profile and major PK parameters of different chemical structures were investigated following oral administration. Blood samples were taken from the tail vein with either the multiple or single sampling method.
(§3) For both methods, the same formulation per compound was used to ensure any differences in results were not due to formulation effects. Test compounds JNJ1 (a farnesyl transferase compound), JNJ2 (galantamine hydrobromide) and JNJ3 (a CRF antagonist) were formulated in demineralized water or a 10% hydroxypropyl- -β cyclodextrin (HP- - ? CD) solution at final concentrations of between 0.25 and 1 mg/ml. All formulations were stored at room temperature, protected from light and analysed quantitatively. Animals were orally dosed by gastric intubation using a volume of 10 ml/kg.
(§4) After dosing the compound, blood samples were taken at the desired time points. For the single sampling method, three animals per time point were sacrificed by decapitation and blood was collected by exsanguination into 10 ml B-D Sterile EDTA K3 Vacutainer tubes. For the multiple sampling technique 0.3 ml venous blood was repeatedly collected from the tail vein as described above. For each compound, 3 rats were used for a complete plasma concentration time profile. Plasma samples were analysed for the appropriate compound using individual qualified research LC-MS/MS methods as described in section 2.4.
For all compounds, individual calibration curves were constructed in blank EDTA rat plasma (covering the expected concentration range). Independent quality control samples (QC) were prepared in rat EDTA plasma at four concentration levels in duplicate, covering the entire calibration range. The study samples, calibration and QC samples were extracted using a generic sample preparation method. After sample preparation, the (reconstituted) residues were pipetted in polypropylene auto sampler vials and analysed using individual qualified research methods.
Aliquots of the residues were analysed using multiple reaction monitoring (MRM) liquid chromatography coupled to tandem mass spectrometry (LC-MS/MS) (API-3000 or 4000, Applied Biosystems, Canada). Chromatographic separation was obtained on commercial base deactivated C-18 columns of different brands, depending on the chromatographic behaviour of the compounds to be analysed. The mass spectrometers were operated in the TurbolonSpray TM mode (positive ion electrospray ionisation). For each compound the mass spectrometer was optimised to measure a selective parent-daughter transition. Integration of the chromatographic peaks was performed using the Analist software version 1.2 (Applied Biosystem, Canada). Final concentrations were calculated by interpolation from the calibration curves response, using a linear regression model. Both accuracy and precision were within expectations for all compounds, allowing accurate PK calculations
A limited PK analysis was performed using WinNonlin™ Professional (Version 3.3). For the single sampling method, a non-compartmental data analysis was carried out on the mean plasma concentration profile (n=3/time point). For the multiple sampling method, a non-compartmental data analysis was carried out on the plasma concentration time profiles obtained from each animal (n=3). […]

in vivo [2] = conditions: male, Sprague-Dawley, rat, single oral 5 mg/kg, Mean
Source text: as §1, §2, §3
as §4, with “For each compound, 3 rats were used for a complete plasma concentration time profile.” left out
For all compounds, individual calibration curves were constructed in blank EDTA rat plasma (covering the expected concentration range). […] After sample preparation, the (reconstituted) residues were pipetted in polypropylene auto sampler vials and analysed using individual qualified research methods.
Aliquots of the residues were analysed using multiple reaction monitoring (MRM) liquid chromatography coupled to tandem mass spectrometry (LC-MS/MS) (API-3000 or 4000, Applied Biosystems, Canada). Chromatographic separation was obtained on commercial base deactivated C-18 columns of different brands, depending on the chromatographic behaviour of the compounds to be analysed. […] Final concentrations were calculated by interpolation from the calibration curves response, using a linear regression model. […]
A limited PK analysis was performed using WinNonlin™ Professional (Version 3.3). […] Average values were then calculated to compare the multiple and the single sampling method. The PK parameters calculated were observed maximum plasma concentration (Cmax), the time to reach the maximum plasma concentration (Tmax), plasma half-life (t1/2) and exposure of the compound calculated by the area under the curve (AUClast and AUCinf). […]

AUC(0-inf) (in vivo [1]; Mean, read-out: AUCinf (extrapolated exposure)): 1180 ng·h/mL | AUC(0-t) (in vivo [1]; Mean, read-out: AUClast (observed exposure)): 1100 ng·h/mL | Cmax (in vivo [1]; Mean, read-out: Cmax (maximum plasma concentration)): 113 ng/mL | half-life (in vivo [1]; Mean, read-out: t1/2 (half life) (converted)): 5.75 h | AUC(0-inf) (in vivo [1]; Rat 1, read-out: AUCinf (extrapolated exposure)): 1440 ng·h/mL | AUC(0-t) (in vivo [1]; Rat 1, read-out: AUClast (observed exposure)): 1310 ng·h/mL | Cmax (in vivo [1]; Rat 1, read-out: Cmax (maximum plasma concentration)): 135 ng/mL | half-life (in vivo [1]; Rat 1, read-out: t1/2 (half life) (converted)): 6.81 h | AUC(0-inf) (in vivo [1]; Rat 2, read-out: AUCinf (extrapolated exposure)): 1180 ng·h/mL | AUC(0-t) (in vivo [1]; Rat 2, read-out: AUClast (observed exposure)): 1120 ng·h/mL | Cmax (in vivo [1]; Rat 2, read-out: Cmax (maximum plasma concentration)): 96.3 ng/mL | half-life (in vivo [1]; Rat 2, read-out: t1/2 (half life) (converted)): 4.89 h | AUC(0-inf) (in vivo [1]; Rat 3, read-out: AUCinf (extrapolated exposure)): 913 ng·h/mL | AUC(0-t) (in vivo [1]; Rat 3, read-out: AUClast (observed exposure)): 866 ng·h/mL | Cmax (in vivo [1]; Rat 3, read-out: Cmax (maximum plasma concentration)): 108 ng/mL | half-life (in vivo [1]; Rat 3, read-out: t1/2 (half life) (converted)): 5.65 h | AUC(0-inf) (in vivo [2]; read-out: AUCinf (extrapolated exposure)): 1440 ng·h/mL | AUC(0-t) (in vivo [2]; read-out: AUClast (observed exposure)): 1380 ng·h/mL | Cmax (in vivo [2]; read-out: Cmax (maximum plasma concentration)): 155 ng/mL | half-life (in vivo [2]; read-out: t1/2 (half life) (converted)): 4.93 h
SMILES: COc1ccc2c3c1O[C@H]1C[C@@H](O)C=C[C@@]31CCN(C)C2 [JNJ2, galantamine hydrobromide]

From patent publication US20070259435A1, “Intravenous Drug Administration and Blood Sampling Model in the Awake Rat” (priority 2004, published 2007)
